Data as given in patent US20240166604A1, “HYDROXYTYROSOL NICOTINAMIDE EUTECTIC CRYSTAL, AND PREPARATION METHOD THEREFOR AND COMPOSITION THEREOF” (COCRYSTAL TECHNOLOGY (JIAXING) CO., LTD., priority 2021, published 2024).

Key:
[1] = Hygroscopicity by dynamic moisture sorption (DVS); format: physicochemical; settings: 80% relative humidity, 25° C.
Method: About 5 mg of powder sample was weighed and put in a dynamic moisture sorption instrument (DVS). The relative humidity range was set at from 0 to 95%, and the temperature was set at 25° C. The weight change of the samples under different environmental humidity conditions were recorded and used to compare the hygroscopicity of the material.

[2] = Chemical stability at 40° C./75% RH, hydroxytyrosol content by HPLC; format: physicochemical; settings: double-layer polyethylene bags; for content of hydroxytyrosol, Day 0: 0 d, initial content set as 100%; for content of hydroxytyrosol, Day 14: 14 d; for content of hydroxytyrosol, Day 14 / content of hydroxytyrosol, Day 30: % of initial content; for content of hydroxytyrosol, Day 30: 30 d
Method: An appropriate amount of powder sample was put in an accelerated stability chamber at 40° C./75% RH with the packaging condition of double-layer polyethylene bags, and the sample was taken at 0 d, 14 d, and 30 d. The content of hydroxytyrosol was determined by high performance liquid chromatography (the content was calculated by external standard method).

Molecule | hygroscopicity (weight change) [1] | content of hydroxytyrosol, Day 0 [2] | content of hydroxytyrosol, Day 14 [2] | content of hydroxytyrosol, Day 30 [2] | content of hydroxytyrosol, Day 30 ([2]; listed as hydroxytyrosol itself) | hygroscopicity (in words) [1]
OCCc1ccc(O)c(O)c1 [Hydroxytyrosol itself, Hydroxytyrosol] | 16.9% | 100.0% | 98.8% | 92.3% | 92.3% | –
co-crystal of hydroxytyrosol and nicotinamide [Example 1] | 0.39% | 100.0% | 99.7% | – | – | basically non-hygroscopic
